Experimental data from article PMC12244496 (bioRxiv, 2025).
Where no end group is shown, it is not given here. [ ]: non-standard residue; d: D form. Lys(Me3) = C[N+](C)(C)CCCC[C@H](N)C(=O)O

Tests used:
[1] = molecular target: core PRC2 (Homo sapiens, UniProt O75530+Q15910); assay: PRC2-core activity assay; assay type: biochemical; conditions: 50 μM peptide; histone H3 peptide (residues 21–44) substrate
[2] = tested on: mESCs; assay: Recovery of H3K27me1/2/3 in mESCs after tazemetostat treatment; assay type: cell-based, mouse; conditions: 10 μM for 7 days

Sequence of core PRC2 (Q15910 whole entry, the tested form may be a part): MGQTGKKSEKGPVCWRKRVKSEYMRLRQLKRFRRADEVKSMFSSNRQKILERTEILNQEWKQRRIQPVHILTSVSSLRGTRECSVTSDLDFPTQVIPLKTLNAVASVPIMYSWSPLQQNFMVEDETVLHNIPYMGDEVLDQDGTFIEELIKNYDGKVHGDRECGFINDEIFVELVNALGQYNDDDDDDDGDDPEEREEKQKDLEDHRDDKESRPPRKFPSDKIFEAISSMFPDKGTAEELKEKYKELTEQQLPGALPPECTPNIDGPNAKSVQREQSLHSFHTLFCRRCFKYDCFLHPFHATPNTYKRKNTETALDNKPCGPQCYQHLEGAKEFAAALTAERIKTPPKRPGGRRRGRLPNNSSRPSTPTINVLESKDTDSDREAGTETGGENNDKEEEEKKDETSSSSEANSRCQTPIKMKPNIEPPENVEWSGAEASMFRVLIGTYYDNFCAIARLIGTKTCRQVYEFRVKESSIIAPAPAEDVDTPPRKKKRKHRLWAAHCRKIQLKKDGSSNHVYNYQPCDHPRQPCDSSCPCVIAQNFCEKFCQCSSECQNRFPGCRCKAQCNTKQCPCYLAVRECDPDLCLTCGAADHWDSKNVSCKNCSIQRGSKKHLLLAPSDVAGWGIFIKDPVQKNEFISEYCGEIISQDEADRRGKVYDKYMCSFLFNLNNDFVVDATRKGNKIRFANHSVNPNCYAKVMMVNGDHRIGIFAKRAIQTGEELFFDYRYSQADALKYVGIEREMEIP
Sequence of core PRC2 (O75530 whole entry, the tested form may be a part): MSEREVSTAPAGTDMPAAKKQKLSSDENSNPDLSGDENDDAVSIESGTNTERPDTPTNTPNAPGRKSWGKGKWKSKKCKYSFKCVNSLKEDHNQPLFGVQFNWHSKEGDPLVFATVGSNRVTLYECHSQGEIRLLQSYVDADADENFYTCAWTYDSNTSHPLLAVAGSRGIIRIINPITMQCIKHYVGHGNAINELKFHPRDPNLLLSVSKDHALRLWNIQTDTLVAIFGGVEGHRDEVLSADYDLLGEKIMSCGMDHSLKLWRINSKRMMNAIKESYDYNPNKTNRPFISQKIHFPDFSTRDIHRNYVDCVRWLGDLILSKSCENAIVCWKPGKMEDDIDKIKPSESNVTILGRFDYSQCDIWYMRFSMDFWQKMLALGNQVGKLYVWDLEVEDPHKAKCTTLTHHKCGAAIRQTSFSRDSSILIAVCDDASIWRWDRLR
Sequence of core PRC2 (Q15022 whole entry partner, the tested form may be a part): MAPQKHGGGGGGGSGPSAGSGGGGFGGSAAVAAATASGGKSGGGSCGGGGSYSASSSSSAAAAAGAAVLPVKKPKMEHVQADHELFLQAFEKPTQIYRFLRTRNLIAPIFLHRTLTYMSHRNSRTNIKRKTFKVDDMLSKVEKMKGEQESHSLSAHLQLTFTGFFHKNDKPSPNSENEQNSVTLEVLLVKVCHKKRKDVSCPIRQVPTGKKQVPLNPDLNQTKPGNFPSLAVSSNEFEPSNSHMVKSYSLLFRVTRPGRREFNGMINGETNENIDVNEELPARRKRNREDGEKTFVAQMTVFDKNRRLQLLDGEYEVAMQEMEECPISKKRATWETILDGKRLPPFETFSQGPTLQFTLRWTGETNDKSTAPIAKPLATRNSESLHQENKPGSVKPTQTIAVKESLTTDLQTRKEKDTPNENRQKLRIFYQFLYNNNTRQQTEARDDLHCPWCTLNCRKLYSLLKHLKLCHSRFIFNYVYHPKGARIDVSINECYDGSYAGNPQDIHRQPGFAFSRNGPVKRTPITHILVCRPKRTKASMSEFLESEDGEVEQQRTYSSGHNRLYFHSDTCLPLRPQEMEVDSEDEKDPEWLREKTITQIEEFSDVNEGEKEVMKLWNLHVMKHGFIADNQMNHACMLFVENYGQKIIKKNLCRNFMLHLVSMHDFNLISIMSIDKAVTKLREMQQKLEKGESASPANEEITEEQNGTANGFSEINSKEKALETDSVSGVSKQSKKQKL
Sequence of core PRC2 (Q09028 whole entry partner, the tested form may be a part): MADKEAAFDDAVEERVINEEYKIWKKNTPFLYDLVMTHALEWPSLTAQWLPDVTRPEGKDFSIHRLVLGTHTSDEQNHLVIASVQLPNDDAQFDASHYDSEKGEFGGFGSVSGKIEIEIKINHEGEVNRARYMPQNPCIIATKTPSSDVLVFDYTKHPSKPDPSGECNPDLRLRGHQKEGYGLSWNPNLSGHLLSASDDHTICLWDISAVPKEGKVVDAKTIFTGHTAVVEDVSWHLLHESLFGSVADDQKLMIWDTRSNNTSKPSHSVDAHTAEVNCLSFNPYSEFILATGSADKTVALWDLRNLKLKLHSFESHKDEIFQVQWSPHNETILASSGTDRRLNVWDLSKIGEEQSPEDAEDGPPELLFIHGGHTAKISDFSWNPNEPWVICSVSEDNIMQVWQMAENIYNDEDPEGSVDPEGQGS

Compound | PRC2 activity (%) [1] [%] | depletion of H3K27me1/2/3 [2]
KAAR[Lys(Me3)]SAPA [compound 2] | 583±28 | –
TKAAR[Lys(Me3)]SA [compound 4] | 485±93 | –
CCN(c1cc(-c2ccc(CN3CCOCC3)cc2)cc(C(=O)NCc2c(C)cc(C)[nH]c2=O)c1C)C1CCOCC1 [tazemostat, tazemetostat] | – | completely depleted
